Data on 71 molecules can be found in PubChem BioAssay AID488890 (Southern Research Specialized Biocontainment Screening …, 2010).

In the assay the test system is Mycobacterium tuberculosis non-replicating, growth inhibition. Kind of assay: growth inhibition of non-replicating M. tuberculosis (AID 488890).

Usually IC50 stands for the point on the concentration scale where inhibition reaches its midpoint.

Inconclusive results are not listed. Active and inactive are the calls of the source. No rule for the calls is given here.

In the case of `O=C(N/N=C/c1ccc(O)cc1)c1cccc(C(F)(F)F)c1`, the IC50 is 16 µM (inactive).
To `CC(C)=CCN1CCN(CCC2=C(C)CCCC2(C)C)CC1CCO` (stereo unspecified) belongs 7.56 µM; to `O=c1c2cc(Br)ccc2nc(-c2ccc([N+](=O)[O-])cc2)n1O`, 0.99 µM; to `N/C(=N\OC(=O)CC1CCCCC1)c1ccncc1`, 6.38 µM.
Next, `COc1cccc(C(=O)OCn2nnc3ccccc3c2=O)c1OC`: 19 µM (inactive); `CCCCNC(=O)COC(=O)c1cc(F)c(F)cc1Cl`: 5.61 µM.
To `C[C@@H]1CN=C2N(CCNC(=O)CCC3CCCCC3)[C@H](Cc3ccc(O)cc3)CN21` belongs 18.9 µM (inactive); to `Cc1ccc(NC(CC(=O)c2ccccc2)C(=O)O)cc1Cl` (stereo unspecified), 8.32 µM; to `Cc1nc2c(=O)n(C)c(=O)nc-2n(C)n1`, 8.25 µM.
In the case of `O=C(N/N=C\c1ccc([N+](=O)[O-])o1)c1cncc(Br)c1`, the IC50 is 8.55 µM.
Next, `O=C(c1ccccc1)c1nc[nH]c1C(=O)Nc1ccccc1`: 11.5 µM (inactive); `O=C(COC(=O)c1cc2ccccc2oc1=O)Nc1ccc(F)cc1F`: 10.3 µM (inactive).
`Cc1nnc(C)n1/N=C/c1cc(Br)cc(Br)c1O`: the IC50 is 11.3 µM (inactive).
As for `CCCCCCOc1ccc(C(=O)O)cc1C#N`, the IC50 was 42.7 µM (inactive).
To `COc1cccc(C(=O)N/N=C(/c2ccccc2)c2ccccn2)c1` belongs 4.04 µM; to `O=C(Oc1ccccc1Cl)c1ccc2c(=O)n3c(nc2c1)CCC3`, 2.28 µM; to `O=C(Nc1nnc(C2CC2)o1)c1ccc(S(=O)(=O)N2CCCCC2)cc1`, 29.8 µM (inactive).
Next, `CC(Cc1ccccc1Sc1ccccc1)N(C)C` (stereo unspecified): 26 µM (inactive); `CCOC(=O)c1ccc(NC2=CC(=O)C(=O)c3ccccc32)cc1`: 9.94 µM.
As for `O=c1c2cc(Cl)ccc2nc(-c2ccc([N+](=O)[O-])cc2)n1O`, the IC50 is 2.2 µM.
As for `CCOc1ccc2nc(NC(=O)c3ccccn3)sc2c1`, the IC50 is 1.03 µM.
As to `O=C(Nc1nccs1)c1ccccn1`, the IC50 is 14.5 µM (inactive).
Next, `Cc1ccc(C)c(-c2nnc(NC(=O)C3=COCCO3)o2)c1`: 23.1 µM (inactive); `O=C(Nc1nnc(-c2ccccc2Cl)o1)c1ccc(S(=O)(=O)N2CCCCCC2)cc1`: 8.7 µM; `COc1ccc2nc(C)cc(N/N=C/c3ccccc3)c2c1`: 2.6 µM.
To `CCn1nnc(NC(=O)c2ccc([N+](=O)[O-])o2)n1` belongs 9.04 µM.
Next, `Cc1ccnc(-n2c(C)cc(/C=C3\C(=O)NC(=S)N(C)C3=O)c2C)c1`: 25.7 µM (inactive).
In the case of `O=C(CC(=O)c1ccccc1O)c1cccc(F)c1`, the concentration for half-maximal inhibition (IC50) is 8.89 µM.
To `CCCN(CCC)CCNC(=O)c1cc2c(-c3ccc(Cl)cc3)nn(C)c2s1` belongs 22.5 µM (inactive); to `CC(C)Cn1c(N)c(C(=O)COC(=O)c2ccc([N+](=O)[O-])o2)c(=O)n(C)c1=O`, 2.86 µM.
Next, `COC(=O)c1ccc(COC(=O)CCS(=O)(=O)c2ccc(C)cc2)cc1`: 19 µM (inactive).
On to `COc1ccc(OC)c(N2C(=O)NC(=O)/C(=C/c3ccc([N+](=O)[O-])s3)C2=O)c1`, for which the IC50 was 25.5 µM (inactive).
Next, `O=c1[nH]c(O)c(/C=C2/C=CC(c3cc(Cl)ccc3Cl)=N2)c(=O)[nH]1`: 0.34 µM; `Cc1ccc(-c2noc(CCCC(=O)Nc3cccnc3)n2)cc1`: 7.61 µM.
Next, `Cc1cc(NC(=O)COc2ccccc2)ccc1Cl`: 5.43 µM; `Cc1cc(N/N=C/c2ccc(O)cc2O)nc(-n2nc(C)cc2C)n1`: 0.77 µM; `CCOc1cc(-c2sc(Nc3cc(C)ccc3OC)n[n+]2-c2ccccc2)ccc1OC`: 4.29 µM.
Next, `FC(F)(F)c1nc(SCc2ccc(Cl)cc2Cl)n[nH]1`: 4.69 µM; `O=C(N/N=C/c1ccc(Br)s1)c1cccnc1`: 9.43 µM.
For the molecule `COc1ccccc1-c1nnc(NC(=O)c2ccc3ncsc3c2)o1`, the IC50 is 22.5 µM (inactive).
Next, `CCOc1ccc(C(=O)Nc2nnc(C3=COCCO3)o2)cc1`: 22.2 µM (inactive); `CN(C)CCNc1c2c(c(C#N)c3nc4ccccc4n13)CCCC2`: 14.5 µM (inactive); `COc1ccccc1C(=O)OCC(=O)Nc1ccc(Cl)cn1`: 16.2 µM (inactive).
As to `O=C(Nc1ccn(Cc2ccccc2)n1)c1ccc(F)cc1`, the IC50 is 14.8 µM (inactive).
To `COc1cccc(COC(=O)CCNC(=O)c2ccc(Br)cc2)c1OC` belongs 15.6 µM (inactive); to `Cc1cc(C)n(-c2nc(SCCN(C)C)c3c4c(sc3n2)CCCC4)n1`, 6.69 µM.
For the molecule `O=C(O)c1ccc(-n2nc(C(F)(F)F)c3c2CCCC3)cc1`, the IC50 is 34.2 µM (inactive).
Next, `Oc1ccccc1-c1nnc(COc2ccccc2)o1`: 11.2 µM (inactive); `O=C(NCCc1c[nH]c2ccccc12)c1cc2ccccc2oc1=O`: 4.78 µM; `O=C(NNC(=O)c1ccccc1F)c1ccc(-c2ccc(Cl)cc2)o1`: 1.53 µM.
Turning to `Cc1ccc(NC(=O)COc2ccccc2CNC(C)(C)CC(C)(C)C)cc1`, the IC50 is 16.5 µM (inactive).
Next, `Cc1ccc(-n2sc3ccccc3c2=O)cc1`: 14.3 µM (inactive); `Cc1cc(NC(=O)C2CCCCC2)n(-c2nc3ccccc3[nH]2)n1`: 6.84 µM; `Cc1cc(Br)ccc1OCCCCN1CCC(C)CC1`: 9.63 µM.
Next, `CCC(=O)c1ccc(OCc2ccc(C(=O)OC)cc2)cc1`: 10.8 µM (inactive); `COc1ccc(Cc2nnc(SCc3ccc([N+](=O)[O-])cc3)o2)cc1`: 3.16 µM.
To `O=C(Nc1nccs1)c1ccc(COc2ccc(Cl)cc2)o1` belongs 10.4 µM (inactive).
On to `O=c1c2cc(Cl)ccc2nc(-c2ccccc2Cl)n1O`, for which the IC50 is 15.5 µM (inactive).
For `COc1ccc(C(O)CNc2ccc(C)cc2)cc1` (stereo unspecified), the IC50 was 43.2 µM (inactive).
Next, `CCc1ccc(C2=C/C(=C/c3cccnc3)C(=O)O2)cc1`: 21.2 µM (inactive); `O=C(Nc1nnc(-c2ccc(Cl)cc2)o1)c1ccccc1Br`: 0.58 µM.
For the molecule `CN(C)CCCN(C(=O)CCc1ccccc1)c1nc2ccc(Cl)cc2s1`, the IC50 is 12.7 µM (inactive).
Next, `CCOc1ccc(NC(=O)Cn2sc3nc(C)cc(C)c3c2=O)cc1`: 5.5 µM; `CSCCC(=O)N1CCCC(N2CCN(c3cccc(C(F)(F)F)c3)CC2)C1` (stereo unspecified): 34.4 µM (inactive); `O=C(Oc1c(-c2ccco2)oc2ccccc2c1=O)c1cccnc1`: 11.5 µM (inactive).
As to `Cc1ccc(CN2CC(C(=O)OCc3ccccc3Cl)CC2=O)cc1` (stereo unspecified), the IC50 is 8.11 µM.
Consider `COc1cc2c(cc1OC)CN(CCC(=O)c1ccc(Br)cc1)CC2`, for which the IC50 is 6.03 µM.
Next, `CCOC(=O)Nc1cccc(OCC(=O)Nc2ccc(OC)cc2OC)c1`: 16.5 µM (inactive).
As to `O=C1Nc2ccccc2/C1=C/C(=O)c1cccs1`, the IC50 was 13.4 µM (inactive).
To `CC(C)(C)Sc1ccc2nc3c(n2c1)CCCC3` belongs 9.32 µM; to `CCOC(=O)c1sc(NC(=O)CCN2CCOCC2)c(C(=O)OCC)c1C`, 1.73 µM.
